From patent US20240132431A1, “METHOD FOR ALKYLATING ACIDIC FUNCTIONAL GROUP” (Chugai Seiyaku Kabushiki Kaisha, priority 2021, published 2024)

What was measured:
[1] = molecular target: T1, Bcl-2 protein (Recombinant Human Bcl-2 Protein) (Homo sapiens, UniProt P10415); assay: Binding evaluation of mixture library compounds to Bcl-2 using AS-MS (affinity selection mass spectrometry); conditions: for ASMS ratio (%) n = 1 / ASMS ratio (%) n = 2: AS-MS, Bcl-2, ASMS Ratio(%)=(A−C)/B×100; for ASMS ratio (%) n = 1: replicate n = 1; for ASMS ratio (%) n = 2: replicate n = 2; for ASMS ratio (%): (A−C)/B×100, 1200-compound mixture, Bcl-2 20 μM
T1 construct: purchased Novus NBP2-34889
Outline: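 Affinity selection MS: Bcl-2 20 μM + 1200-cpd mixture, […]/cpd, Tris pH 7.4 buffer w/ Tween-20, DTT; 1 h 23° C dark; P-2 spin SEC; MeCN/MeOH extraction; RP LC/MS. ASMS Ratio(%) = (A−C)/B×100.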

human Bcl-2 protein = molecular target: T2, human Bcl-2 protein (Homo sapiens, UniProt P10415); assay: Binding evaluation of compounds to Bcl-2 by surface plasmon resonance (SPR); conditions: for Equilibrium dissociation constant KD: Biacore T200, biotinylated human Bcl-2 immobilized on Sensor Chip SA, 15° C., compounds found by AS-MS evaluation of synthesized library; for Kd: binding to Bcl-2, compounds evaluated before library synthesis, read-out: KD
T2 construct: purchased Novus Biologicals
Method: In order to analyze the binding affinity of the compounds shown in [Table AK-O1] and synthesized in Example 8 to Bcl-2, the surface plasmon resonance method was used. Biacore T200 (GE Healthcare) was used as the apparatus, and HBS (10 mM HEPES-NaOH, 150 mM NaCl, pH 7.4) to which 1 mM DTT, 3 mM EDTA, 0.01% Tween 20, and 4% DMSO had been added was used as the running buffer. The human Bcl-2 protein (Novus Biologicals) was biotinylated using EZ-Link Sulfo-NHS-LC-LC-biotin (Thermofisher scientific) and immobilized on the surface of Sensor Chip SA (GE Healthcare). Thereafter, compound solutions of multiple concentrations and the running buffer (blank) were added to the Bcl-2 immobilized surface to obtain the binding response of the compounds. The measurement was carried out at 15° C.

T2 sequence (P10415 whole entry): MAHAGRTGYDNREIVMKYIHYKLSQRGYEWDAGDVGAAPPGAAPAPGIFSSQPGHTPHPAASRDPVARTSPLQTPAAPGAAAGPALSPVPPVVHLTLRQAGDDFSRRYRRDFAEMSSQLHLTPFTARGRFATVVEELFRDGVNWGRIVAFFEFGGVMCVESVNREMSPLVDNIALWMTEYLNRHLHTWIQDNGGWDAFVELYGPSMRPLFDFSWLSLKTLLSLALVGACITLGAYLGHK
T1 sequence (P10415 whole entry): as above

SMILES	ASMS ratio (%) n = 1 ([1]; mixture library) [%]	ASMS ratio (%) n = 2 ([1]; mixture library) [%]	other results
CCOc1cccc(-c2ccc(CN3CCN(c4ccc(C(=O)NCC56CC7CC(CC(C7)C5)C6)nn4)CC3)c(CC)c2)c1 [B1A075-01, N-(1-adamantylmethyl)-6-[4-[[4-(3-ethoxyphenyl)-2-ethylphenyl]methyl]piperazin-1-yl]pyridazine-3-carboxamide]			ASMS ratio (%) n = 1 ([1]; mixture of 1200 compounds): 31.3%; ASMS ratio (%) n = 2 ([1]; mixture of 1200 compounds): 28.6%; ASMS ratio (%) ([1]; first value in parentheses): 31.3%; ASMS ratio (%) ([1]; second value in parentheses): 28.6%; Equilibrium dissociation constant KD (human Bcl-2 protein): Binding not observed
CCOc1cncc(-c2ccccc2CCC(=O)N2CCN(c3ccc(C(=O)NS(=O)(=O)c4ccc(NCCSc5ccccc5)c([N+](=O)[O-])c4)nn3)CC2)c1 [B2Q012-01, 6-[4-[3-[2-(5-ethoxypyridin-3-yl)phenyl]propanoyl]piperazin-1-yl]-N-[3-nitro-4-(2-phenylsulfanylethylamino)phenyl]sulfonylpyridazine-3-carboxamide]	21.4	22.5	ASMS ratio (%) ([1]; first value in parentheses): 21.4%; ASMS ratio (%) ([1]; second value in parentheses): 22.5%; Equilibrium dissociation constant KD (human Bcl-2 protein): Bound
CCOc1cccc(-c2ccccc2CN2CCN(c3ccc(C(=O)NS(=O)(=O)c4ccc(NCCSc5ccccc5)c([N+](=O)[O-])c4)cc3)CC2)c1 [B2Q045-01, 4-[4-[[2-(3-ethoxyphenyl)phenyl]methyl]piperazin-1-yl]-N-[3-nitro-4-(2-phenylsulfanylethylamino)phenyl]sulfonylbenzamide]	49.9	49.9	ASMS ratio (%) ([1]; first value in parentheses): 49.9%; ASMS ratio (%) ([1]; second value in parentheses): 49.9%; Kd (human Bcl-2 protein): 1.2 µM
CCOc1cncc(-c2ccccc2CN2CCN(c3ccc(C(=O)NS(=O)(=O)c4ccc(NCCSc5ccccc5)c([N+](=O)[O-])c4)cc3)CC2)c1 [B2Q046-01, 4-[4-[[2-(5-ethoxypyridin-3-yl)phenyl]methyl]piperazin-1-yl]-N-[3-nitro-4-(2-phenylsulfanylethylamino)phenyl]sulfonylbenzamide]	20.3	20.5	ASMS ratio (%) ([1]; first value in parentheses): 20.3%; ASMS ratio (%) ([1]; second value in parentheses): 20.5%; Kd (human Bcl-2 protein): 8.1 µM
CCOc1cccc(-c2ccc(CN3CCN(c4ccc(C(=O)N(CC)CC)nn4)CC3)c(OC)c2)c1 [B4J079-01, 6-[4-[[4-(3-Ethoxyphenyl)-2-methoxyphenyl]methyl]piperazin-1-yl]-N,N-diethylpyridazine-3-carboxamide]	0.0	0.0	
CCOc1cncc(-c2ccc(CN3CCN(c4ccc(C(=O)N(CC)CC)nn4)CC3)c(OC)c2)c1 [B4J080-01]	0.0	0.0	
CCOc1cccc(-c2cc(CN3CCN(c4ccc(C(=O)N(CC)CC)nn4)CC3)cc(OCC)c2)c1 [B4J081-01, 6-[4-[[3-Ethoxy-5-(3-ethoxyphenyl)phenyl]methyl]piperazin-1-yl]-N,N-diethylpyridazine-3-carboxamide]	0.0	0.0	
CCOc1cncc(-c2cc(CN3CCN(c4ccc(C(=O)N(CC)CC)nn4)CC3)cc(OCC)c2)c1 [B4J082-01, 6-[4-[[3-Ethoxy-5-(5-ethoxypyridin-3-yl)phenyl]methyl]piperazin-1-yl]-N,N-diethylpyridazine-3-carboxamide]	0.0	0.0	
CCOc1cccc(-c2cc(CN3CCN(c4ccc(C(=O)N(CC)CC)nn4)CC3)cc(OC(C)C)c2)c1 [B4J083-01, 6-[4-[[3-(3-Ethoxyphenyl)-5-propan-2-yloxyphenyl]methyl]piperazin-1-yl]-N,N-diethylpyridazine-3-carboxamide]	0.0	0.0	
CCOc1cncc(-c2cc(CN3CCN(c4ccc(C(=O)N(CC)CC)nn4)CC3)cc(OC(C)C)c2)c1 [B4J084-01, 6-[4-[[3-(5-Ethoxypyridin-3-yl)-5-propan-2-yloxyphenyl]methyl]piperazin-1-yl]-N,N-diethylpyridazine-3-carboxamide]	0.0	−0.6	
CCOc1cccc(-c2cc(OC)c(CN3CCN(c4ccc(C(=O)N(CC)CC)nn4)CC3)c(OC)c2)c1 [B4J085-01, 6-[4-[[4-(3-Ethoxyphenyl)-2,6-dimethoxyphenyl]methyl]piperazin-1-yl]-N,N-diethylpyridazine-3-carboxamide]	0.0	2.8	
CCOc1cncc(-c2cc(OC)c(CN3CCN(c4ccc(C(=O)N(CC)CC)nn4)CC3)c(OC)c2)c1 [B4J086-01, 6-[4-[[4-(5-Ethoxypyridin-3-yl)-2,6-dimethoxyphenyl]methyl]piperazin-1-yl]-N,N-diethylpyridazine-3-carboxamide]	0.0	0.0	
CCOc1cccc(-c2cc(CN3CCN(c4ccc(C(=O)N(CC)CC)nn4)CC3)cc(C(F)(F)F)c2)c1 [B4J087-01, 6-[4-[[3-(3-Ethoxyphenyl)-5-(trifluoromethyl)phenyl]methyl]piperazin-1-yl]-N,N-diethylpyridazine-3-carboxamide]	0.9	0.3	
CCOc1cncc(-c2cc(CN3CCN(c4ccc(C(=O)N(CC)CC)nn4)CC3)cc(C(F)(F)F)c2)c1 [B4J088-01]	0.0	0.0	
CCOc1cccc(-c2cc(CN3CCN(c4ccc(C(=O)N(CC)CC)nn4)CC3)cc(OC(F)(F)F)c2)c1 [B4J089-01, 6-[4-[[3-(3-Ethoxyphenyl)-5-(trifluoromethoxy)phenyl]methyl]piperazin-1-yl]-N,N-diethylpyridazine-3-carboxamide]	3.9	0.4	
CCOc1cncc(-c2cc(CN3CCN(c4ccc(C(=O)N(CC)CC)nn4)CC3)cc(OC(F)(F)F)c2)c1 [B4J090-01, 6-[4-[[3-(5-Ethoxypyridin-3-yl)-5-(trifluoromethoxy)phenyl]methyl]piperazin-1-yl]-N,N-diethylpyridazine-3-carboxamide]	1.4	−1.5	
CCOc1cccc(-c2ccc(CN3CCN(c4ccc(C(=O)N(CC)CC)nn4)CC3)c3ccccc23)c1 [B4J091-01, 6-[4-[[4-(3-Ethoxyphenyl)naphthalen-1-yl]methyl]piperazin-1-yl]-N,N-diethylpyridazine-3-carboxamide]	3.7	1.5	
CCOc1cncc(-c2ccc(CN3CCN(c4ccc(C(=O)N(CC)CC)nn4)CC3)c3ccccc23)c1 [B4J092-01, 6-[4-[[4-(5-Ethoxypyridin-3-yl)naphthalen-1-yl]methyl]piperazin-1-yl]-N,N-diethylpyridazine-3-carboxamide]	−1.4	0.3	
CCOc1cccc(-c2csc(CN3CCN(c4ccc(C(=O)N(CC)CC)nn4)CC3)c2)c1 [B4J093-01]	−2.1	0.6	
CCOc1cncc(-c2csc(CN3CCN(c4ccc(C(=O)N(CC)CC)nn4)CC3)c2)c1 [B4J094-01]	−1.3	0.1	
CCOc1cccc(C#Cc2ccccc2CN2CCN(c3ccc(C(=O)N(CC)CC)nn3)CC2)c1 [B4J095-01, 6-[4-[[2-[2-(3-Ethoxyphenyl)ethynyl]phenyl]methyl]piperazin-1-yl]-N,N-diethylpyridazine-3-carboxamide]	1.5	0.0	
CCOc1cncc(C#Cc2ccccc2CN2CCN(c3ccc(C(=O)N(CC)CC)nn3)CC2)c1 [B4J096-01]		0.0	
CCOc1cccc(-c2ccc(C(C)N3CCN(c4ccc(C(=O)N(CC)CC)cc4)CC3)cc2)c1 (centres unmarked) [B4J097-01, 4-[4-[1-[4-(3-Ethoxyphenyl)phenyl]ethyl]piperazin-1-yl]-N,N-diethylbenzamide]	−0.9	−0.4	
CCOc1cncc(-c2ccc(C(C)N3CCN(c4ccc(C(=O)N(CC)CC)cc4)CC3)cc2)c1 (centres unmarked) [B4J098-01, 4-[4-[1-[4-(5-Ethoxypyridin-3-yl)phenyl]ethyl]piperazin-1-yl]-N,N-diethylbenzamide]	−2.0	−0.2	
CCOc1cccc(-c2ccc(C(C)N3CCN(c4ccc(C(=O)N(CC)CC)cc4)CC3)c(F)c2)c1 (centres unmarked) [B4J099-01, 4-[4-[1-[4-(3-Ethoxyphenyl)-2-fluorophenyl]ethyl]piperazin-1-yl]-N,N-diethylbenzamide]		0.0	
CCOc1cncc(-c2ccc(C(C)N3CCN(c4ccc(C(=O)N(CC)CC)cc4)CC3)c(F)c2)c1 (centres unmarked) [B4J100-01, 4-[4-[1-[4-(5-Ethoxypyridin-3-yl)-2-fluorophenyl]ethyl]piperazin-1-yl]-N,N-diethylbenzamide]	0.0	0.0	
